Test results from EP4768499A1, “MACROCYCLIC PEPTIDE COMPOUND HAVING CELL MEMBRANE PERMEABILITY AND METABOLIC STABILITY, AND LIBRARY CONTAINING SAME” (Chugai Seiyaku Kabushiki Kaisha, priority 2023, dated 2025).
Starred links: 1 amine or outer side, 2 acyl side, 3 side chain; linkers in the order of their positions; H or OH if unused. Positions of bridges follow the written chain, without caps; N, C: chain ends. Non-standard residues stand in square brackets, D forms with d. Residues, ends and D or L forms follow the SMILES beside them. *: point of attachment. NMedβ3hAla = C[C@H](CC(=O)[*:2])N(C)[*:1]; NMeF = CN[C@@H](Cc1ccccc1)C(=O)O; NMeGABA = CN(CCCC(=O)[*:2])[*:1]; NMeI = CC[C@H](C)[C@H](NC)C(=O)O; NMeT = CN[C@H](C(=O)O)[C@@H](C)O; hPhe = N[C@@H](CCc1ccccc1)C(=O)O; NMeβAla = CN(CCC(=O)[*:2])[*:1]; NMeD = CN[C@@H](CC(=O)O)C(=O)O; NMeL = CN[C@@H](CC(C)C)C(=O)O; NMeV = CN[C@H](C(=O)O)C(C)C; d(β3hA) = C[C@@H](N)CC(=O)O; NMeAbu = CC[C@H](NC)C(=O)O; NMeA = CN[C@@H](C)C(=O)O; Piperidide = C1CCN(*)CC1; dNMeA = CN[C@H](C)C(=O)O; Abu = CC[C@H](N)C(=O)O; NBuGly = CCCCNCC(=O)O; βAla = NCCC(=O)O; Sar = CNCC(=O)O; tBu = CC(C)(C)*

How the values were obtained:
[1] = Metabolic stability test: liver microsomal stability assay; type: in vitro ADME, mouse; conditions: mouse liver microsomes 0.5 mg protein/mL, compound 1 µM; for microsomal CLint at 1 µM: male, pH 7.4, presence of NADPH, read-out: Mouse Hepatic Microsome CLh,int NADPH(+); for Mouse Hepatic Microsome CLh,int NADPH(-): absence of NADPH
Caco-2 cells = experiment: Membrane permeability test using Caco-2 cells with preincubation; type: in vitro ADME; conditions: Caco-2 cells, preincubation 20 to 24 hours; apical FaSSIF/HBSS 1% DMSO pH 6.0, basal HBSS 4% BSA pH 7.4; basal sample at 180 minutes
[2] = as above; type: in vitro ADME; conditions: Caco-2; preincubation 20 to 24 hours; Apical FaSSIF/HBSS pH 6.0, Basal HBSS 4% BSA pH 7.4; 180 minutes; read-out: Caco2 Papp

Compound	microsomal CLint at 1 µM [1]	Mouse Hepatic Microsome CLh,int NADPH(-) [1]	Caco2 Papp (10^-6 cm/sec) (Caco-2 cells)	Papp A→B [2]
CC[C@@H]1NC(=O)[C@H](C(C)C)N(C)C(=O)[C@H](C(C)C)NC(=O)[C@H](C)N(C)C(=O)CCN(C)C(=O)[C@H](CCc2ccccc2)NC(=O)[C@H](CC(C)C)N(C)C(=O)[C@H]([C@@H](C)CC)NC(=O)CN(C)C(=O)C[C@@H](C(=O)N2CCCCC2)N(C)C(=O)[C@H](CC(C)C)NC(=O)[C@H](CC(C)C)N(C)C(=O)[C@H]([C@@H](C)O)NC(=O)[C@H](Cc2ccccc2)N(C)C1=O [pd088] ([Sar]I[NMeL][hPhe][NMeβAla][NMeA]V[NMeV][Abu][NMeF]T[NMeL]L[NMeD]-Piperidide; lactam N-14)	20.9 µL/min/mg	24.2 µL/min/mg Protein	0.11 10^-6 cm/sec	0.11 ×10⁻⁶ cm/s
CCCCN1CC(=O)N(C)[C@@H](Cc2ccccc2)C(=O)N[C@@H](COC(C)(C)C)C(=O)N(C)[C@@H](CC(C)C)C(=O)NCCC(=O)N(C)[C@@H](C)C(=O)N[C@@H]([C@@H](C)CC)C(=O)N(C)[C@@H](CC(C)C)C(=O)N[C@@H](C(C)C)C(=O)N(C)[C@H](C(=O)N2CCCCC2)CC(=O)N(C)CCC(=O)N(C)[C@@H](CC(C)C)C(=O)N[C@@H]([C@@H](C)CC)C(=O)N(C)[C@@H](Cc2ccccc2)C1=O [pd077] ([NMeβAla][NMeL]I[NMeF][NBuGly][NMeF]S(tBu)[NMeL][βAla][NMeA]I[NMeL]V[NMeD]-Piperidide; lactam N-14)	40 µL/min/mg	40.3 µL/min/mg Protein	0.32 10^-6 cm/sec	0.32 ×10⁻⁶ cm/s
CC(C)C[C@@H]1NC(=O)[C@H](CC(C)C)N(C)C(=O)[C@H]([C@@H](C)O)NC(=O)[C@H](C(C)C)N(C)C(=O)[C@H](Cc2ccccc2)N(C)C(=O)[C@@H](C(C)C)NC(=O)C[C@@H](C(=O)N2CCCCC2)N(C)C(=O)[C@H](C)N(C)C(=O)[C@H](Cc2ccccc2)N(C)C(=O)[C@H](C)NC(=O)[C@H](COC(C)(C)C)NC(=O)[C@H](CC(C)C)N(C)C(=O)[C@H](C(C)C)NC(=O)CN(C)C1=O [pd086] ([dV][NMeF][NMeV]T[NMeL]L[Sar]V[NMeL]S(tBu)A[NMeF][NMeA][NMeD]-Piperidide; lactam N-14)	20.1 µL/min/mg	20.0 µL/min/mg Protein	0.06 10^-6 cm/sec	0.06 ×10⁻⁶ cm/s
CCCCN1CC(=O)N(C)[C@@H](CC(C)C)C(=O)N[C@@H]([C@@H](C)O)C(=O)N(C)[C@@H](C)C(=O)N2CCC[C@H]2C(=O)N[C@@H](CCc2ccccc2)C(=O)N[C@@H]([C@@H](C)CC)C(=O)N(C)[C@H](C(=O)N2CCCCC2)CC(=O)N(C)[C@@H](CC(C)C)C(=O)N[C@@H](COC(C)(C)C)C(=O)N(C)[C@@H](C(C)C)C(=O)N[C@@H]([C@@H](C)CC)C(=O)N2CCC[C@H]2C(=O)N[C@@H](C(C)C)C1=O [pd087] ([NMeL]S(tBu)[NMeV]IPV[NBuGly][NMeL]T[NMeA]P[hPhe]I[NMeD]-Piperidide; lactam N-14)	31.8 µL/min/mg	29.0 µL/min/mg Protein	<0.07 10^-6 cm/sec	< 0.07 ×10⁻⁶ cm/s
CC[C@@H]1NC(=O)[C@H](CC(C)C)N(C)C(=O)[C@H]([C@@H](C)CC)NC(=O)[C@H](CC(C)C)N(C)C(=O)C[C@@H](C)NC(=O)[C@H](C(C)C)N(C)C(=O)[C@H](CC(C)C)NC(=O)[C@H](CC)N(C)C(=O)[C@H](Cc2ccccc2)N(C)C(=O)[C@@H]2CCCN2C(=O)[C@H](CC(C)C)NC(=O)[C@H]([C@@H](C)O)N(C)C(=O)[C@H](C)NC(=O)[C@H](CC(C)C)N(C)C1=O [pd053] (cyclo(A[NMeT]LP[NMeF][NMeAbu]L[NMeV][d(β3hA)][NMeL]I[NMeL][Abu][NMeL]))	45.7 µL/min/mg	24.1 µL/min/mg Protein	1.64 10^-6 cm/sec	1.64 ×10⁻⁶ cm/s
CC[C@H](C)[C@@H]1NC(=O)[C@H](COC(C)(C)C)NC(=O)[C@H]([C@@H](C)O)NC(=O)[C@H](Cc2ccccc2)N(C)C(=O)[C@H](C)N(C)C(=O)[C@H](CC(C)C)N(C)C(=O)[C@H](CCc2ccccc2)NC(=O)[C@@H]2CCCN2C(=O)[C@H]([C@@H](C)CC)NC(=O)[C@H](CC(C)C)N(C)C(=O)[C@H](C)NC(=O)CCCN(C)C(=O)C[C@@H](C(=O)N2CCCCC2)NC(=O)[C@H](CC(C)C)N(C)C1=O [pd022] ([NMeGABA]A[NMeL]IP[hPhe][NMeL][NMeA][NMeF]TS(tBu)I[NMeL]D-Piperidide; lactam N-14)	44.4 µL/min/mg	36.4 µL/min/mg Protein	0.15 10^-6 cm/sec	0.15 ×10⁻⁶ cm/s
CC[C@H](C)[C@H]1C(=O)N(C)[C@@H](CC(C)C)C(=O)N[C@H](C(=O)N2CCCCC2)CC(=O)N(C)CCCC(=O)N[C@@H](CC(C)C)C(=O)N(C)[C@@H](CC(C)C)C(=O)N(C)[C@@H](C)C(=O)N(C)[C@@H](Cc2ccccc2)C(=O)N[C@@H](C)C(=O)N(C)[C@@H](Cc2ccccc2)C(=O)N(C)[C@@H](CC)C(=O)N(C)[C@@H](CC(C)C)C(=O)N[C@@H]([C@@H](C)O)C(=O)N(C)[C@@H](C)C(=O)N1C [pd048] ([NMeGABA]L[NMeL][NMeA][NMeF]A[NMeF][NMeAbu][NMeL]T[NMeA][NMeI][NMeL]D-Piperidide; lactam N-14)	30.2 µL/min/mg	20.7 µL/min/mg Protein	0.28 10^-6 cm/sec	0.28 ×10⁻⁶ cm/s
CC(C)C[C@@H]1NC(=O)[C@@H]2CCCN2C(=O)[C@H](C(C)C)N(C)C(=O)[C@H](C)NC(=O)[C@H](CC(C)C)N(C)C(=O)[C@@H](C(C)C)NC(=O)C[C@@H](C(=O)N2CCCCC2)NC(=O)[C@H](C(C)C)N(C)C(=O)[C@H](Cc2ccccc2)N(C)C(=O)[C@H](CC(C)C)NC(=O)[C@H](COC(C)(C)C)NC(=O)[C@H](CC(C)C)N(C)C(=O)CN(C)C1=O [pd097] ([dV][NMeL]A[NMeV]PL[Sar][NMeL]S(tBu)L[NMeF][NMeV]D-Piperidide; lactam N-13)	20.4 µL/min/mg	18.8 µL/min/mg Protein	0.54 10^-6 cm/sec	0.54 ×10⁻⁶ cm/s

Further lines, results first:

microsomal CLint at 1 µM [1]	Mouse Hepatic Microsome CLh,int NADPH(-) [1]	Caco2 Papp (10^-6 cm/sec) (Caco-2 cells)	Papp A→B [2]	Compound
22.7 µL/min/mg	6.8 µL/min/mg Protein	3.88 10^-6 cm/sec	3.88 ×10⁻⁶ cm/s	CC[C@H](C)[C@@H]1NC(=O)[C@H](Cc2ccccc2)N(C)C(=O)[C@H](C(C)C)NC(=O)[C@@H](C)N(C)C(=O)C[C@@H](C)NC(=O)[C@H](C(C)C)N(C)C(=O)[C@H](Cc2ccccc2)N(C)C(=O)[C@H](COC(C)(C)C)NC(=O)[C@H](CC(C)C)N(C)C(=O)[C@H](C)N(C)C(=O)[C@@H]2CCCN2C(=O)[C@H]([C@@H](C)O)NC(=O)[C@H](CC(C)C)N(C)C1=O [pd130] (cyclo(I[NMeL]TP[NMeA][NMeL]S(tBu)[NMeF][NMeV][d(β3hA)][dNMeA]V[NMeF]))
31.7 µL/min/mg	24.9 µL/min/mg Protein	1.42 10^-6 cm/sec	1.42 ×10⁻⁶ cm/s	CC(C)C[C@@H]1NC(=O)[C@H](Cc2ccccc2)N(C)C(=O)[C@H](C)N(C)C(=O)[C@H](CC(C)C)N(C)C(=O)CN(C)C(=O)[C@H](C(C)C)N(C)C(=O)[C@H](CC(C)C)N(C)C(=O)[C@H](C(C)C)N(C)C(=O)[C@H](C(C)C)NC(=O)[C@H](CC(C)C)N(C)C(=O)[C@@H](C(C)C)NC(=O)C[C@@H](C(=O)N2CCCCC2)N(C)C(=O)[C@H](C)N(C)C1=O [pd157] ([dV][NMeL]V[NMeV][NMeL][NMeV][Sar][NMeL][NMeA][NMeF]L[NMeA][NMeD]-Piperidide; lactam N-13)
39.3 µL/min/mg	11.1 µL/min/mg Protein	0.23 10^-6 cm/sec	0.23 ×10⁻⁶ cm/s	CC[C@H](C)[C@@H]1NC(=O)[C@H](CC(C)C)N(C)C(=O)[C@H](C)N(C)C(=O)[C@H](Cc2ccccc2)N(C)C(=O)[C@@H]2CCCN2C(=O)[C@H](CC(C)C)N(C)C(=O)[C@H](CCc2ccccc2)NC(=O)CCN(C)C(=O)C[C@@H](C)NC(=O)[C@H](CC(C)C)N(C)C(=O)[C@H]([C@@H](C)O)NC(=O)CCN(C)C(=O)[C@H](C(C)C)N(C)C1=O [pd138] (cyclo(I[NMeV][NMeβAla]T[NMeL][d(β3hA)][NMeβAla][hPhe][NMeL]P[NMeF][NMeA][NMeL]))
39.3 µL/min/mg	21.0 µL/min/mg Protein	4.73 10^-6 cm/sec	4.73 ×10⁻⁶ cm/s	CC[C@H](C)[C@@H]1NC(=O)[C@H](CC(C)C)N(C)C(=O)CCCN(C)C(=O)C[C@@H](C)N(C)C(=O)[C@H](CC(C)C)NC(=O)[C@H](CC)N(C)C(=O)[C@H](C(C)C)N(C)C(=O)[C@H](C)N(C)C(=O)[C@H](CC(C)C)N(C)C(=O)[C@H](COC(C)(C)C)NC(=O)[C@H](Cc2ccccc2)N(C)C(=O)[C@H](Cc2ccccc2)N(C)C(=O)CN(C)C1=O [pd143] (cyclo(I[Sar][NMeF][NMeF]S(tBu)[NMeL][NMeA][NMeV][NMeAbu]L[NMedβ3hAla][NMeGABA][NMeL]))
22.5 µL/min/mg	16.7 µL/min/mg Protein	<0.13 10^-6 cm/sec	< 0.13 ×10⁻⁶ cm/s	CC[C@H]1C(=O)N(C)CC(=O)N(C)[C@@H](CC(C)C)C(=O)N[C@@H](COC(C)(C)C)C(=O)N(C)[C@@H](C)C(=O)N(C)[C@@H](Cc2ccccc2)C(=O)N(C)CC(=O)N(C)[C@H](C(=O)N2CCCCC2)CC(=O)N[C@H](C(C)C)C(=O)N(C)[C@@H](Cc2ccccc2)C(=O)NCCC(=O)N(C)[C@@H](C(C)C)C(=O)N[C@@H]([C@@H](C)O)C(=O)N(C)[C@@H](CC(C)C)C(=O)N1C [pd094] ([dV][NMeF][βAla][NMeV]T[NMeL][NMeAbu][Sar][NMeL]S(tBu)[NMeA][NMeF][Sar][NMeD]-Piperidide; lactam N-14)
